Data published in US12091405B2, “Substituted pyrazole compounds as indoleamine 2,3-dioxygenase inhibitors” (Merck Sharp & Dohme LLC, priority 2018, dated 2024).

Target: IDO1 (Homo sapiens, UniProt P14902)
Assay: IDO1 Cellular Assay in HeLa Cells Stimulated with IFNγ
Format: cell-based
Conditions: IFNγ 100 ng/mL, 300 uM L-tryptophan, about 48 hours, fluorescence readout, read-out: IDO1 HELA Cell Assay, IC50

Sequence of IDO1 (P14902 whole entry): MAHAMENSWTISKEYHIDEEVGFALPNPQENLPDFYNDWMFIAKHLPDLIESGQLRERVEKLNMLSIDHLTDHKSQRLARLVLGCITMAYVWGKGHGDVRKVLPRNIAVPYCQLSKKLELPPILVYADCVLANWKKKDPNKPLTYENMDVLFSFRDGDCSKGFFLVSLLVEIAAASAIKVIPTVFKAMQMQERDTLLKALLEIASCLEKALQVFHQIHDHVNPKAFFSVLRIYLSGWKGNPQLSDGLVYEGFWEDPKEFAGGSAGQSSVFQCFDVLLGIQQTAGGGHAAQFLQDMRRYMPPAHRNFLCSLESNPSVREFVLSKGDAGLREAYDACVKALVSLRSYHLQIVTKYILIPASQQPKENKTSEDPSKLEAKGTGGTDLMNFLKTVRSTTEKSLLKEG

| Compound | IC50 [nM] |
| --- | --- |
| Cc1c(C2CCN(C(=O)Cn3nc(C(=O)N4CCN(CC(N)=O)CC4)c4c3C[C@H]3C[C@@H]43)CC2)cccc1C(F)(F)F [Example 6, 2-(4-((3bR,4aR)-1-(2-(4-(2-methyl-3-(trifluoromethyl)phenyl)piperidin-1-yl)-2-oxoethyl)-3b,4,4a,5-tetrahydro-1H-cyclopropa[3,4]cyclopenta[1,2-c]pyrazole-3-carbonyl)piperazin-1-yl)acetamide] | 2.5 |
| Cc1c(C2CCN(C(=O)Cn3nc(C(=O)N4CCC(O)CC4)c4c3C[C@H]3C[C@@H]43)CC2)cccc1C(F)(F)F [Example 2, 2-((3bR,4aR)-3-(4-hydroxypiperidine-1-carbonyl)-3b,4,4a,5-tetrahydro-1H-cyclopropa[3,4]cyclopenta[1,2-c]pyrazol-1-yl)-1-(4-(2-methyl-3-(trifluoromethyl)phenyl)piperidin-1-yl) ethanone] | 1.6 |
| CCc1cccc(C2CCN(C(=O)Cn3nc(C(=O)N4C[C@@H](C)O[C@@H](C)C4)c4c3CCC4)CC2)c1 [Example 96, 2-{3-[(2R,6S)-2,6-dimethylmorpholine-4-carbonyl]-5,6-dihydrocyclopenta[c]pyrazol-1(4H)-yl}-1-[4-(3-ethylphenyl)piperidin-1-yl]ethan-1-one] | 21.5 |
| C[C@@H]1CN(C(=O)c2nn(CC(=O)N3CCC(c4cccc(F)c4F)CC3)c3c2CCC3)C[C@H](C)O1 [Example 121, 1-[4-(2,3-difluorophenyl)piperidin-1-yl]-2-{3-[(2R,6S)-2,6-dimethylmorpholine-4-carbonyl]-5,6-dihydrocyclopenta[c]pyrazol-1(4H)-yl}ethan-1-one] | 53.2 |
| C[C@@H]1CN(C(=O)c2nn(CC(=O)N3CCC(c4ccc(Cl)c(Cl)c4)CC3)c3c2CCC3)C[C@H](C)O1 [Example 123, 1-[4-(3,4-dichlorophenyl)piperidin-1-yl]-2-{3-[(2R,6S)-2,6-dimethylmorpholine-4-carbonyl]-5,6-dihydrocyclopenta[c]pyrazol-1(4H)-yl}ethan-1-one] | 54.5 |
| C[C@@H]1CN(C(=O)c2nn(CC(=O)N3CCC(c4cccc5c4CCC5)CC3)c3c2CCC3)C[C@H](C)O1 [Example 86, 1-[4-(2,3-dihydro-1H-inden-4-yl)piperidin-1-yl]-2-{3-[(2R,6S)-2,6-dimethylmorpholine-4-carbonyl]-5,6-dihydrocyclopenta[c]pyrazol-1(4H)-yl}ethan-1-one] | 7.3 |
| C[C@@H]1CN(C(=O)c2nn(CC(=O)N3CCC(c4cccc(C(F)(F)F)c4F)CC3)c3c2CCC3)C[C@H](C)O1 [Example 104, 2-{3-[(2R,6S)-2,6-dimethylmorpholine-4-carbonyl]-5,6-dihydrocyclopenta[c]pyrazol-1(4H)-yl}-1-{4-[2-fluoro-3-(trifluoromethyl)phenyl]piperidin-1-yl}ethan-1-one] | 29.8 |
| COc1c(F)cc(C2CCN(C(=O)Cn3nc(C(=O)N4C[C@@H](C)O[C@@H](C)C4)c4c3CCC4)CC2)cc1Cl [Example 95, 1-[4-(3-chloro-5-fluoro-4-methoxyphenyl)piperidin-1-yl]-2-{3-[(2R,6S)-2,6-dimethylmorpholine-4-carbonyl]-5,6-dihydrocyclopenta[c]pyrazol-1(4H)-yl}ethan-1-one] | 19.3 |

The remaining lines, values ahead:

| IC50 [nM] | Compound |
| --- | --- |
| 52.1 | Cc1ccc(F)c(C2CCN(C(=O)Cn3nc(C(=O)N4C[C@@H](C)O[C@@H](C)C4)c4c3CCC4)CC2)c1 [Example 119, 2-{3-[(2R,6S)-2,6-dimethylmorpholine-4-carbonyl]-5,6-dihydrocyclopenta[c]pyrazol-1(4H)-yl}-1-[4-(2-fluoro-5-methylphenyl)piperidin-1-yl]ethan-1-one] |
| 111 | Cc1cc(F)ccc1C1CCN(C(=O)Cn2nc(C(=O)N3CC[C@H](O)[C@@H](F)C3)c3c2CCC3)CC1 [Example 52, 1-(4-(4-fluoro-2-methylphenyl)piperidin-1-yl)-2-(3-((3S,4S)-3-fluoro-4-hydroxypiperidine-1-carbonyl)-5,6-dihydrocyclopenta[c]pyrazol-1(4H)-yl)ethanone] |
| 17.6 | Cc1cccc(C2CCN(C(=O)Cn3nc(C(=O)N4CCN(C(=O)CO)CC4)c4c3CCC4)CC2)c1C [Example 47, 1-(4-(2,3-dimethylphenyl)piperidin-1-yl)-2-(3-(4-(2-hydroxyacetyl)piperazine-1-carbonyl)-5,6-dihydrocyclopenta[c]pyrazol-1(4H)-yl)ethanone] |
| 165 | C[C@@H]1CN(C(=O)c2nn(CC(=O)N3CCC(c4ccc(C(F)(F)F)c(F)c4)CC3)c3c2CCC3)C[C@H](C)O1 [Example 161, 2-{3-[(2R,6S)-2,6-dimethylmorpholine-4-carbonyl]-5,6-dihydrocyclopenta[c]pyrazol-1(4H)-yl}-1-{4-[3-fluoro-4-(trifluoromethyl)phenyl]piperidin-1-yl}ethan-1-one] |
| 90.4 | Cc1cccc(C2(F)CCN(C(=O)Cn3nc(C(=O)N4CCC(N)CC4)c4c3C[C@H]3C[C@@H]43)CC2)c1C [Example 13, 2-((3bR,4aR)-3-(4-aminopiperidine-1-carbonyl)-3b,4,4a,5-tetrahydro-1H-cyclopropa[3,4]cyclopenta[1,2-c]pyrazol-1-yl)-1-(4-(2,3-dimethylphenyl)-4-fluoropiperidin-1-yl)ethanone] |
| 8.1 | Cc1cccc(C2CCN(C(=O)Cn3nc(C(=O)N4CC[C@@H](O)[C@H](F)C4)c4c3CCC4)CC2)c1C [Example 45, 1-(4-(2,3-dimethylphenyl)piperidin-1-yl)-2-(3-((3R,4R)-3-fluoro-4-hydroxypiperidine-1-carbonyl)-5,6dihydrocyclopenta[c]pyrazol-1(4H)-yl)ethanone] |
| 162 | C[C@@H]1CN(C(=O)c2nn(CC(=O)N3CCC(c4cccc(OC(F)(F)F)c4)CC3)c3c2CCC3)C[C@H](C)O1 [Example 160, 2-{3-[(2R,6S)-2,6-dimethylmorpholine-4-carbonyl]-5,6-dihydrocyclopenta[c]pyrazol-1(4H)-yl}-1-{4-[3-(trifluoromethoxy)phenyl]piperidin-1-yl}ethan-1-one] |
| 7.8 | C[C@@H]1CN(C(=O)c2nn(CC(=O)N3CCC(c4cccc(Cl)c4Cl)CC3)c3c2CCC3)C[C@H](C)O1 [Example 87, 1-[4-(2,3-dichlorophenyl)piperidin-1-yl]-2-{3-[(2R,6S)-2,6-dimethylmorpholine-4-carbonyl]-5,6-dihydrocyclopenta[c]pyrazol-1(4H)-yl}ethan-1-one] |
| 30.3 | Cc1ccc(C2CCN(C(=O)Cn3nc(C(=O)N4C[C@@H](C)O[C@@H](C)C4)c4c3CCC4)CC2)c(C)c1 [Example 105, 2-{3-[(2R,6S)-2,6-dimethylmorpholine-4-carbonyl]-5,6-dihydrocyclopenta[c]pyrazol-1(4H)-yl}-1-[4-(2,4-dimethylphenyl)piperidin-1-yl]ethan-1-one] |
| 296 | CC(C)c1ccc(C2CCN(C(=O)Cn3nc(C(=O)N4C[C@@H](C)O[C@@H](C)C4)c4c3CCC4)CC2)cc1 [Example 168, 2-{3-[(2R,6S)-2,6-dimethylmorpholine-4-carbonyl]-5,6-dihydrocyclopenta[c]pyrazol-1(4H)-yl}-1-{4-[4-(propan-2-yl)phenyl]piperidin-1-yl}ethan-1-one] |
| 289 | Cc1cc(F)ccc1C1CCN(C(=O)Cn2nc(C(=O)N3CCN(C(=O)CO)CC3)c3c2CCC3)CC1 [Example 57, 1-(4-(4-fluoro-2-methylphenyl)piperidin-1-yl)-2-(3-(4-(2-hydroxyacetyl)piperazine-1-carbonyl)-5,6-dihydrocyclopenta[c]pyrazol-1(4H)-yl)ethanone] |
